Where only a bound is given, the exact number is not on record here.

RIPK1 kinase, sequence (Q13546 whole entry): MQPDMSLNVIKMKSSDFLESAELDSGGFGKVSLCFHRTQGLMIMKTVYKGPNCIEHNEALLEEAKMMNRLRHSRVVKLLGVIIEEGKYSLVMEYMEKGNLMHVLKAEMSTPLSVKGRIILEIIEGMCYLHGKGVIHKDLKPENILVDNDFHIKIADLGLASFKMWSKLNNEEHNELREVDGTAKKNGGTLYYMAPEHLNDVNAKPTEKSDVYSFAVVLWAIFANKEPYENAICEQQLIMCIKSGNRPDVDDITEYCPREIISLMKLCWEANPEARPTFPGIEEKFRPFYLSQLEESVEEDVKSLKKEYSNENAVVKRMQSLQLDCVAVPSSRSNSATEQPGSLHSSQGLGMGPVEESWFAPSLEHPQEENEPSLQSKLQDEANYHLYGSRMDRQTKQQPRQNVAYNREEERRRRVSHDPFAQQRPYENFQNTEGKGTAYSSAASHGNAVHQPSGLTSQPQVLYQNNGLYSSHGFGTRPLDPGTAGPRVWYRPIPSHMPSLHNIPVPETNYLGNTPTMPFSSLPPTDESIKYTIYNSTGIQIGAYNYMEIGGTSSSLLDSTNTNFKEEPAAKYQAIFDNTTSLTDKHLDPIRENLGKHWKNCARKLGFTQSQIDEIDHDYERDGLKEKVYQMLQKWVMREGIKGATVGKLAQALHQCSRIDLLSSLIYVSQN

The first assay concerns the target RIPK1 kinase (Homo sapiens (Human), UniProt Q13546). The assay is described as follows: RIPK1 kinase inhibitory assay (ADP-Glo). Type of assay: biochemical.
Conditions: not given
On the procedure: Materials and Instruments: ADP-Glo kinase kit (purchased from Promega), RIPK1 GST-Th-Tag (purchased from Bps Bioscience), MBP substrate (purchased from Millipore), nunc 384-well plate, ATP fluorescence analyzer Paradigm detection platform (purchased from Beckman coulter)
The compounds were diluted in DMSO and configured into a solution with a final concentration of 10 mM; Dilute RIP1 kinase from 140 ng/μL to 20 ng/μL for use. Dilute 10 mM of ATP to 100 μM for later use; Dilute 5 mg/mL of MBP to 1 mg/mL for later use. Appropriate embodiments were added into the well of the 384-well plate, 10 μl […] ATP was evenly mixed with 1 μl 1 mg/mL MB P, the mixed solution was added to the well, and 2 μL […] RIP1 kinase was added to the hole, and then incubated at room temperature for 1 h. Subsequently, 5 μL ADP-Glo reagent was added to each well and incubated at room temperature for 40 min. Then, 10 μL ADP-Glo detection reagent was added to each well and incubated at room temperature for 30 min. Finally, the RLU value (relative light unit) of each well was measured by ATP fluorometer, and each sample was repeated twice. Inhibition rate=(RLU value of blank group−RLU value of drug administration group)/RLU value of blank group×100%.
A general note: ADP-Glo first removes unused ATP, then detects ADP through luciferase.
As a reminder, the IC50 is the concentration needed to halve the response being measured. For the compound `CN1C(=O)C(Cc2c[nH]c3ccccc23)NC1=S` (stereo not shown) [Nec-1, reference compound], the IC50 came to 1140 nM.

The assay is the same for the next values; noted with them: 10 μM compound; read-out: Inhibition rate of RIPK1 at 10 μM (%).
Usually inhibition stands for the percentage by which the read-out fell short of the control. As to `O=C(c1ccccc1)N1CCC2(CC1)CNN(Cc1ccccc1)C2=O` [Compound 71, 8-benzoyl-2-benzyl-2,3,8-triazaspiro[4.5]decan-1-one], the inhibition at 10 µM came out at 31%.

With `CN1C(=O)N(CC2CCCC2)C(=O)C12CCN(C(=O)c1ccccc1)CC2` [Compound 8, 8-benzoyl-3-(cyclopentylmethyl)-1-methyl-1,3,8-triazaspiro [4.5]decane-2,4-dione], the inhibition at 10 µM came out at 22%. On to `CN1CCC2(CC1)CCN(Cc1ccccc1)C2=O` [Compound 21, 2-benzyl-8-methyl-2,8-diazaspiro[4.5]decan-1-one], for which the inhibition at 10 µM was found to be 5%. The same measure, in the same setting: as for `O=C(c1ccccc1)N1CCC2(CC1)N=CN(Cc1cc(F)ccc1F)C2=O` [Compound 61, 8-benzoyl-3-(2,5-difluorobenzyl)-1,3,8-triazaspiro[4.5]dec-1-en-4-one], the figure is above 50%; as for `O=C(c1ccccc1)N1CCC2(CC1)CCN(Cc1ccc(C(F)(F)F)cc1)C2=O` [Compound 15, 8-benzoyl-2-(4-(trifluoromethyl)benzyl)-2,8-diazaspiro[4.5]decan-1-one], above 50%. On the same count and under the same terms, in the case of `O=C(c1ccccc1)N1CCC2(CC1)CCN(CC1CCCCC1)C2=O` [Compound 11, 8-benzoyl-2-(cyclohexylmethyl)-2,8-diazaspiro[4.5]decan-1-one] it was above 50%; in that of `N#Cc1ccc(CN2N=CC3(CCN(C(=O)c4ccccc4)CC3)C2=O)cc1` [Compound 69, 4-((8-benzoyl-1-oxo-2,3,8-triazaspiro[4.5]dec-3-en-2-yl)methyl) benzonitrile], 9%; in that of `O=C(c1ccccc1)N1CCC2(CC1)CCN(Cc1cc(F)cc(F)c1)C2=O` [Compound 35, 8-benzoyl-2-(3,5-difluorobenzyl)-2,8-diazaspiro[4.5]decan-1-one], above 50%. The same measure, in the same setting: as for `N#Cc1ccc(F)cc1CN1CCC2(CCN(C(=O)c3ccccc3)CC2)C1=O` [Compound 57, 2-((8-benzoyl-1-oxo-2,8-diazaspiro[4.5]decan-2-yl)methyl)-4-fluorobenzonitrile], the figure is 25%. `O=C(c1ccccc1)N1CCC2(C=NN(Cc3cc(F)ccc3F)C2=O)CC1` [Compound 66, 8-benzoyl-2-(2,5-difluorobenzyl)-2,3,8-triazaspiro[4.5]dec-3-en-1-one]: the inhibition at 10 µM is above 50%.

Regarding `Cn1ccc2cc(C(=O)N3CCC4(CC3)CCN(Cc3ccccc3)C4=O)ccc21` [Compound 28, 2-benzyl-8-(1-methyl-1H-indole-5-carbonyl)-2,8-diazaspiro[4.5]decan-1-one], the inhibition at 10 µM was found to be 3%. Still for that read-out and setting: as for `O=C(c1ccccc1)N1CCC2(CC1)N=CN(Cc1ccccc1)C2=O` [Compound 59, 8-benzoyl-3-benzyl-1,3,8-triazaspiro[4.5]dec-1-en-4-one], the figure is 38%; as for `CN1C(=O)N(Cc2ccccc2)C(=O)C12CCN(C(=O)c1ccccc1)CC2` [Compound 2, 8-benzoyl-3-benzyl-1-methyl-1,3,8-triazaspiro [4.5] decane-2,4-dione], 8%; as for `O=C(c1ccccc1)N1CCC2(C=NN(Cc3ccccc3)C2=O)CC1` [Compound 62, 8-benzoyl-2-benzyl-2,3,8-triazaspiro[4.5]dec-3-en-1-one], above 50%. On to `O=C(c1ccccc1)N1CCC2(CC1)CCN(Cc1ccccc1)C2=O` [Compound 9, 8-benzoyl-2-benzyl-2,8-diazaspiro[4.5]decan-1-one], for which the inhibition at 10 µM is above 50%. On the same count and under the same terms, in the case of `O=C(c1cscn1)N1CCC2(CC1)CCN(Cc1cc(F)ccc1F)C2=O` [Compound 75, 2-(2,5-difluorobenzyl)-8-(thiazole-4-carbonyl)-2,8-diazaspiro [4.5]decan-1-one] it was above 50%; in that of `O=C(c1ccccc1)N1CCC2(CC1)CCN(Cc1ccc(Cl)cc1F)C2=O` [Compound 39, 8-benzoyl-2-(4-chloro-2-fluorobenzyl)-2,8-diazaspiro[4.5]decan-1-one], above 50%; in that of `O=C(c1ccccc1)N1CCC2(CC1)CCN(Cc1ccc(F)cc1F)C2=O` [Compound 43, 8-benzoyl-2-(2,4-difluorobenzyl)-2,8-diazaspiro[4.5]decan-1-one], above 50%. Still for that read-out and setting: in the case of `O=C(c1cccnc1)N1CCC2(CC1)CCN(Cc1ccccc1)C2=O` [Compound 17, 2-benzyl-8-nicotinoyl-2,8-diazaspiro[4.5]decan-1-one] it was 45%; in that of `O=C(c1ccc2[nH]ccc2c1)N1CCC2(CC1)CCN(Cc1ccccc1)C2=O` [Compound 24, 2-benzyl-8-(1H-indole-5-carbonyl)-2,8-diazaspiro[4.5]decan-1-one], above 50%; in that of `CN1C(=O)N(Cc2cccnc2)C(=O)C12CCN(C(=O)c1ccccc1)CC2` [Compound 5, 8-benzoyl-1-methyl-3-(pyridin-3-ylmethyl)-1,3,8-triazaspiro [4.5]decane-2,4-dione], 20%. The same measure, in the same setting: as for `N#Cc1ccc(CN2CCC3(CCN(C(=O)c4ccccc4)CC3)C2=O)c(F)c1` [Compound 48, 4-((8-benzoyl-1-oxo-2,8-diazaspiro[4.5]decan-2-yl)methyl)-3-fluorobenzonitrile], the figure is 8%. Regarding `COc1cccc(C(=O)N2CCC3(CC2)CCN(Cc2cc(F)ccc2F)C3=O)c1` [Compound 77, 2-(2,5-difluorobenzyl)-8-(3-methoxybenzoyl)-2,8-diazaspiro[4.5]decan-1-one], the inhibition at 10 µM is above 50%. The same measure, in the same setting: in the case of `CN1C(=O)N(Cc2ccc(C(F)(F)F)cc2)C(=O)C12CCN(C(=O)c1ccccc1)CC2` [Compound 4, 8-benzoyl-1-methyl-3-(4-(trifluoromethyl)benzyl)-1,3,8-triazaspiro decane-2,4-dione] it was 16%; in that of `CC(C)N1CCC2(CCN(Cc3ccccc3)C2=O)CC1` [Compound 22, 2-benzyl-8-isopropyl-2,8-diazaspiro[4.5]decan-1-one], 8%; in that of `O=C(c1ccc2cc[nH]c2c1)N1CCC2(CC1)CCN(Cc1ccccc1)C2=O` [Compound 25, 2-benzyl-8-(1H-indole-6-carbonyl)-2,8-diazaspiro[4.5]decan-1-one], above 50%.

Consider `O=C(c1ccccc1)N1CCC2(C=NN(Cc3cc(F)cc(F)c3)C2=O)CC1` [Compound 67, 8-benzoyl-2-(3,5-difluorobenzyl)-2,3,8-triazaspiro[4.5]dec-3-en-1-one], for which the inhibition at 10 µM is above 50%.

Regarding `O=C(c1ccncc1)N1CCC2(CC1)CCN(Cc1ccccc1)C2=O` [Compound 16, 2-benzyl-8-isonicotinoyl-2,8-diazaspiro[4.5]decan-1-one], the inhibition at 10 µM was above 50%. On the same count and under the same terms, in the case of `O=C(c1ccccc1)N1CCC2(C=NN(Cc3ccccc3F)C2=O)CC1` [Compound 63, 8-benzoyl-2-(2-fluorobenzyl)-2,3,8-triazaspiro[4.5]dec-3-en-1-one] it was above 50%; in that of `O=C(c1ccccc1)N1CCC2(CC1)CN(Cc1ccccc1)C2=O` [Compound 73, 7-benzoyl-2-benzyl-2,7-diazaspiro[3.5]nonan-1-one], 45%.

As to `Cc1nnc(N2CCC3(CCN(Cc4cc(F)ccc4F)C3=O)CC2)o1` [Compound 55, 2-(2,5-difluorobenzyl)-8-(5-methyl-1,3,4-oxadiazol-2-yl)-2,8-diazaspiro[4.5]decan-1-one], the inhibition at 10 µM stood at 13%. Turning to `O=C(c1ccccc1)N1CCC2(CC1)CNN(Cc1ccccc1F)C2=O` [Compound 72, 8-benzoyl-2-(2-fluorobenzyl)-2,3,8-triazaspiro[4.5]decan-1-one], the inhibition at 10 µM worked out at 40%. Still for that read-out and setting: as for `O=C(c1ccccc1)N1CCC2(CC1)CCN(CC1CCCC1)C2=O` [Compound 12, 8-benzoyl-2-(cyclopentylmethyl)-2,8-diazaspiro[4.5]decan-1-one], the figure is above 50%.

As to `N#Cc1ccccc1CN1CCC2(CCN(C(=O)c3ccccc3)CC2)C1=O` [Compound 54, 2-((8-benzoyl-1-oxo-2,8-diazaspiro[4.5]decan-2-yl)methyl) benzonitrile], the inhibition at 10 µM turned out to be 6%. Take `Cn1ccc2ccc(C(=O)N3CCC4(CC3)CCN(Cc3ccccc3)C4=O)cc21` [Compound 29, 2-benzyl-8-(1-methyl-1H-indole-6-carbonyl)-2,8-diazaspiro[4.5]decan-1-one]: the inhibition at 10 µM was above 50%. Still for that read-out and setting: as for `O=C(c1ccccc1)N1CCC2(CC1)CCN(Cc1cccc(F)c1F)C2=O` [Compound 40, 8-benzoyl-2-(2,3-difluorobenzyl)-2,8-diazaspiro[4.5]decan-1-one], the figure is above 50%; as for `O=C(c1ccccc1)N1CCC2(CC1)CCN(Cc1cccc(F)c1)C2=O` [Compound 32, 8-benzoyl-2-(3-fluorobenzyl)-2,8-diazaspiro[4.5]decan-1-one], above 50%.

In the case of `O=C(c1ccccc1)N1CCC2(CC1)CCN(Cc1c(F)cccc1F)C2=O` [Compound 37, 8-benzoyl-2-(2,6-difluorobenzyl)-2,8-diazaspiro[4.5]decan-1-one], the inhibition at 10 µM is above 50%. On the same count and under the same terms, as for `O=C(c1ccccc1)N1CCC2(CC1)CCN(Cc1ccc(F)cc1)C2=O` [Compound 33, 8-benzoyl-2-(4-fluorobenzyl)-2,8-diazaspiro[4.5]decan-1-one], the figure is above 50%.

Values taken from patent US20250129073A1, “INHIBITOR OF RECEPTOR-INTERACTING PROTEIN KINASE 1, AND PREPARATION METHOD AND USE THEREFOR” (CHINA PHARMACEUTICAL UNIVERSITY, priority 2021, published 2025).
